Assay results reported in the supplement of paper PMC10307832.

What was measured:
Assay in all cases: relative viability (nuclei count vs DMSO), 5 days (fraction); higher = more cells survive
[1] = compound: C1CSC2=C(C(=O)N1)SC3=C2C=C(C=C3)O [kb NB 142-70] + O=C(CCCCCCC(=O)Nc1ccccc1)NO [Vorinostat] (partner 1 µM)
Method in brief: (§1)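 One day after seeding in 1536-well plates, lung cancer cell lines were dosed by pin tool. Dosing was either single-drug or a fixed anchor-drug dose plus five library-drug doses (not always all listed) in √10 steps. After 5 days, nuclei were stained in one fix-and-stain step and counted on 4× images, and relative viability is the nuclei count of treated wells over that of vehicle wells, given as the median of duplicate plates.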

[2] = compound: NCC(=O)Nc1ccc(-n2nc(C(F)(F)F)cc2-c2ccc3c(ccc4ccccc43)c2)cc1 + CCNC(=O)c1noc(-c2cc(C(C)C)c(O)cc2O)c1-c1ccc(CN2CCOCC2)cc1 [Luminespib] (partner 0.01 µM)
Method in brief: as §1

[3] = compound: NCC(=O)Nc1ccc(-n2nc(C(F)(F)F)cc2-c2ccc3c(ccc4ccccc43)c2)cc1 + C[C@]1(O)C[C@@H](c2nc(-c3ccc4ccc(-c5ccccc5)nc4c3)c3c(N)nccn32)C1 [Linsitinib] (partner 1 µM)
Method in brief: as §1

[4] = compound: NCC(=O)Nc1ccc(-n2nc(C(F)(F)F)cc2-c2ccc3c(ccc4ccccc43)c2)cc1 + O=C(c1cc(Cc2n[nH]c(=O)c3ccccc23)ccc1F)N1CCN(C(=O)C2CC2)CC1 [Olaparib] (partner 8 µM)
Method in brief: as §1

Row | Cell Line | relative viability ([1]; first compound 0.1 µM) | relative viability ([1]; first compound 1 µM) | relative viability ([1]; first compound 3.162 µM) | relative viability ([2]; first compound 0.02 µM) | relative viability ([2]; first compound 0.06325 µM) | relative viability ([2]; first compound 0.2 µM) | relative viability ([2]; first compound 0.6325 µM) | relative viability ([2]; first compound 2 µM) | relative viability ([3]; first compound 0.02 µM) | relative viability ([3]; first compound 0.06325 µM) | relative viability ([3]; first compound 0.2 µM) | relative viability ([3]; first compound 0.6325 µM) | relative viability ([3]; first compound 2 µM) | relative viability ([4]; first compound 0.02 µM) | relative viability ([4]; first compound 0.06325 µM) | relative viability ([4]; first compound 0.2 µM) | relative viability ([4]; first compound 0.6325 µM) | relative viability ([4]; first compound 2 µM)
1 | NCI-H1437 | 0.857 | 0.895 | 0.77 | 1.11 | 0.991 | 1.13 | 1.12 | 1.05 | 0.944 | 1.05 | 1.07 | 1.1 | 1.02 | 0.623 | 0.62 | 0.688 | 0.651 | 0.664
2 | NCI-H650 | 0.514 | 0.585 | 0.363 | 0.725 | 0.878 | 0.867 | 0.734 | 0.973 | 0.638 | 1.01 | 1.02 | 0.862 | 1.08 | 0.395 | 0.415 | 0.421 | 0.399 | 0.396
3 | COR-L23 | 0.515 | 0.428 | 0.214 | 0.599 | 0.652 | 0.772 | 0.57 | 0.757 | 0.989 | 0.927 | 1.05 | 0.896 | 0.95 | 0.368 | 0.368 | 0.352 | 0.393 | 0.366
4 | COR-L 105 | 0.812 | 0.831 | 0.776 | 0.915 | 0.78 | 1.01 | 0.704 | 1.15 | 0.918 | 0.943 | 0.98 | 1.02 | 1.15 | 0.696 | 0.772 | 0.75 | 0.766 | 0.638
5 | LK-2 | 0.417 | 0.279 | 0.219 | 0.173 | 0.195 | 0.217 | 0.173 | 0.208 | 0.686 | 0.437 | 0.483 | 0.555 | 0.522 | 0.758 | 0.78 | 0.799 | 0.666 | 0.671
6 | 201T | 0.943 | 1.02 | 1.06 | 1.1 | 1.07 | 1.11 | 1.03 | 1.06 | 0.957 | 1.01 | 1.09 | 1.09 | 1.04 | 0.867 | 0.868 | 0.856 | 0.879 | 0.844
7 | HCC-44 | 1.09 | 1.14 | 1.21 | 1.1 | 1.05 | 1.06 | 1.03 | 0.938 | 0.648 | 0.688 | 0.697 | 0.632 | 0.652 | 1.05 | 0.994 | 0.953 | 0.941 | 0.956
8 | NCI-H596 | 0.656 | 0.67 | 0.538 | 1.14 | 1.02 | 1.06 | 0.99 | 0.978 | 1.05 | 1.06 | 0.989 | 1.02 | 1.04 | 0.627 | 0.77 | 0.739 | 0.714 | 0.658
9 | H3255 | 0.973 | 0.864 | 0.842 | 0.781 | 1.03 | 0.9 | 0.777 | 0.984 | 0.916 | 0.945 | 0.958 | 0.961 | 0.919 | 0.593 | 0.593 | 0.577 | 0.607 | 0.622
10 | NCI-H647 | 0.716 | 0.597 | 0.492 | 0.26 | 0.151 | 0.146 | 0.181 | 0.252 | 1.23 | 1.25 | 1.12 | 1.31 | 0.915 | 0.593 | 0.573 | 0.657 | 0.486 | 0.483
11 | NCI-H2023 | 0.613 | 0.667 | 0.343 | 0.681 | 0.906 | 0.972 | 0.739 | 0.758 | 0.805 | 0.682 | 0.712 | 0.623 | 0.707 | 0.604 | 0.543 | 0.516 | 0.401 | 0.464
12 | NCI-H23 | 0.703 | 0.583 | 0.298 |  | 0.217 | 0.216 | 0.222 | 0.234 | 0.484 | 0.582 | 0.662 | 0.476 | 0.552 | 0.33 | 0.442 | 0.364 | 0.329 | 0.336
13 | NCI-H1944 | 0.609 | 0.566 | 0.595 | 0.667 | 0.71 | 0.787 | 0.715 | 0.75 | 1.14 | 1.21 | 1.16 | 1.11 | 1.3 | 0.463 | 0.384 | 0.4 | 0.388 | 0.397
14 | NCI-H1793 | 0.807 | 1.02 | 0.654 | 0.398 | 0.155 | 0.18 | 0.192 | 0.213 | 0.826 | 0.799 | 0.893 | 0.966 | 0.962 | 1.05 | 0.957 | 0.921 | 0.852 | 1.02
15 | NCI-H520 | 0.775 | 0.681 | 0.304 | 0.193 | 0.179 | 0.198 | 0.239 | 0.229 | 1.02 | 0.904 | 1.07 | 0.91 | 1.13 | 0.404 | 0.285 | 0.377 | 0.339 | 0.334
16 | NCI-H460 | 0.733 | 0.755 | 0.436 | 0.032 | 0.0402 | 0.0319 | 0.0282 | 0.0345 | 0.823 | 0.757 | 0.855 | 0.717 | 0.738 | 0.368 | 0.41 | 0.458 | 0.354 | 0.446
17 | EKVX | 0.677 | 0.481 | 0.814 | 0.957 | 0.923 | 0.894 | 0.842 | 0.909 | 1.04 | 1.06 | 0.987 | 1.01 | 1.11 | 0.973 | 0.966 | 0.882 | 0.935 | 1.13
18 | NCI-H358 | 0.699 | 0.654 | 0.127 | 0.316 | 0.54 | 0.37 | 0.323 | 0.259 | 0.807 | 0.8 | 0.72 | 0.868 | 0.737 | 0.613 | 0.58 | 0.632 | 0.636 | 0.606
19 | EPLC-272H | 0.597 | 0.273 | 0.155 | 0.265 | 0.264 | 0.367 | 0.186 | 0.35 | 1.38 | 1.06 | 1.18 | 1.22 | 1.18 | 0.731 | 0.699 | 1.05 | 0.848 | 0.851
20 | NCI-H1395 | 0.7 | 0.748 | 0.701 | 0.615 | 0.78 | 0.678 | 0.655 | 0.617 | 0.997 | 0.986 | 1.15 | 1.06 | 1.18 | 0.483 | 0.469 | 0.469 | 0.519 | 0.437
21 | NCI-H2126 | 0.755 | 0.796 | 0.805 | 0.904 | 0.981 | 0.871 | 0.942 | 0.943 | 0.7 | 0.745 | 0.687 | 0.664 | 0.763 | 0.864 | 0.877 | 0.925 | 0.928 | 0.913
22 | LXF-289 | 0.713 | 0.711 | 0.51 | 0.686 | 0.67 | 0.633 | 0.637 | 0.702 | 0.924 | 0.995 | 0.989 | 0.985 | 0.901 | 1.05 | 1.11 | 1.03 | 1.04 | 1.07
23 | NCI-H2009 | 0.724 | 0.95 | 0.688 | 1.1 | 0.932 | 1.09 | 1.03 | 1.03 | 1.22 | 1.18 | 1.23 | 1.21 | 1.12 | 0.681 | 0.72 | 0.75 | 0.657 | 0.679
24 | NCI-H2405 | 1.04 | 1.03 | 0.587 | 0.686 | 0.74 | 0.606 | 0.732 | 0.746 | 0.91 | 1.01 | 0.923 | 0.921 | 0.971 | 0.873 | 0.89 | 0.863 | 0.857 | 0.919
25 | NCI-H1755 | 0.709 | 0.801 | 0.674 | 0.449 | 0.621 | 0.305 | 0.426 | 0.541 | 1.08 | 1.01 | 0.98 | 0.991 | 0.995 | 0.898 | 0.854 | 0.933 | 0.914 | 0.923
26 | LOU-NH91 | 0.915 | 0.913 | 0.601 | 0.334 | 0.38 | 0.314 | 0.339 | 0.352 | 0.984 | 1.04 | 0.891 | 0.959 | 1.09 | 0.967 | 0.959 | 0.933 | 0.922 | 0.995
27 | NCI-H3122 | 0.908 | 1.08 | 0.887 | 0.0686 | 0.0831 | 0.127 | 0.113 | 0.116 | 1.06 | 1.09 | 1.03 | 1.04 | 1.04 | 0.675 | 0.637 | 0.633 | 0.693 | 0.558
28 | HCC-827 | 0.763 | 0.864 | 0.88 | 0.679 | 0.852 | 0.59 | 0.731 | 0.684 | 0.93 | 0.972 | 1 | 0.956 | 0.958 | 0.916 | 0.642 | 0.61 | 0.595 | 0.767
29 | SK-LU-1 | 0.831 | 0.642 | 0.371 | 0.208 | 0.182 | 0.193 | 0.206 | 0.18 | 1.16 | 1.1 | 1.5 | 1.15 | 1.15 | 0.477 | 0.463 | 0.589 | 0.479 | 0.556
